Reference: patent publication US5250424A, “Processes for preparing novel squalene synthetase inhibitors” (Merck & Co., Inc., priority 1992, dated 1993)

Test system: squalene synthetase
Assay: Squalene synthetase assay (rat liver microsomes, [4-14C]farnesyl pyrophosphate)
Format: biochemical
Details: C18 HPLC fractions of Curvularia lunata (MF5573 or MF5572) fermentation extract, shown to contain Compound (I)
Description: Male, Charles River CD rats (120 to 150 g) were fed a diet containing 0.1% lovastatin for 4 days. The livers from these rats were homogenized in 5 volumes (mL/g) of ice cold 50 mm HEPES (4-(2-hydroxyethyl)-1-piperazine-ethanesulfonic acid), 5 mm EDTA(ethylenediaminetetraacetic acid) pH 7.5 with a Potter-Elvehjem type tissue grinder. The homogenate was centrifuged twice at 20,000×g for 15 min. at 4° C., discarding the pellet each time. The supernatant was then centrifuged at 100,000×g for 1 hr. at 4° C. The resulting microsomal pellet was resuspended in a volume of the above homogenizing buffer equal to one-fifth the volume of the original homogenate. This microsomal preparation has a protein concentration of about 7 mg/ml. The microsomal suspensions were stored in aliquots at -70° C. Squalene synthetase activity in these aliquots is stable for at least several months.
SQUALENE SYNTHETASE ASSAY
Reactions were performed in 16×125 mm screw cap test tubes. A batch assay mix was prepared from the following solution:
This assay mix was degassed under a vacuum and flushed with N2. […] Ten mL of scintillation fluid was added to the heptane solution and radio-activity was determined by liquid scintillation counting.
Percent inhibition is calculated by the formula: [formula]

## C=C(CCC12OC(C(=O)O)C(O)(C(=O)O)C(C(=O)O)(O1)C(OC(=O)/C=C/C(C)CC(C)CC)C2O)C(OC(C)=O)C(C)Cc1ccccc1 (stereo not shown) [Compound (I)]
  activity in the squalene synthetase assay: active
